According to the RepoRT retention time repository:

Test: A: acetonitrile + 0.1% formic acid + 10 mM ammonium formate; B: 5% water + 95% acetonitrile + 0.1% formic acid + 10 mM ammonium formate; gradient (min/%B) 0/10 2/10 22/100 27/100 27.1/10
Settings: stereoisomer not certain

Row | Compound | LC retention time [min]
1 | CN(C)CCCN1c2ccccc2CCc2ccc(Cl)cc21 [Clomipramine] | 0.942
2 | CC1(C)SC2C(NC(=O)C(N)c3ccccc3)C(=O)N2C1C(=O)O (centres undefined) [Ampicillin] | 4.86
3 | NCCCC[C@H](N)C(=O)O [L-Lysine] | 7.67
4 | O=P(O)(O)OC(CO)CO [beta-Glycerophosphoric acid] | 6.56
5 | NCCc1cnc[nH]1 [Histamine] | 7.92
6 | NC(N)=NCCC[C@H](N)C(=O)O [L-Arginine] | 7.48
7 | O=C(O)CCCCCCC(=O)O [Suberic acid] | 0.712
8 | Cc1cn(C2OC(CO)C(O)C2O)c(=O)[nH]c1=O (centres undefined) [5-Methyluridine] | 1.78
9 | CC12CC3CC(C)(C1)CC(N)(C3)C2 [Memantine] | 1.94
10 | CSc1ccc2c(c1)N(CCC1CCCCN1C)c1ccccc1S2 (centres undefined) [Thioridazine] | 0.953
11 | O=C(O)Cc1c[nH]c2ccc(O)cc12 [5-Hydroxyindole-3-acetic acid] | 0.651
12 | CCCCc1oc2ccccc2c1C(=O)c1cc(I)c(OCCN(CC)CC)c(I)c1 [Amiodarone] | 0.756
13 | NCC(O)c1ccc(O)cc1 (centres undefined) [Octopamine] | 3.85
14 | Nc1ncnc2c1ncn2C1OC2COP(=O)(O)OC2C1O (centres undefined) [Adenosine cyclophosphate] | 5.66
15 | Cc1ncc(CO)c(C(=O)O)c1O [4-Pyridoxic acid] | 0.875
16 | O=c1[nH]cnc2c1ncn2C1OC(CO)C(O)C1O (centres undefined) [Inosine] | 3.94
17 | Nc1nc2c(ncn2C2OC(COP(=O)(O)OP(=O)(O)O)C(O)C2O)c(=O)[nH]1 (centres undefined) [Guanosine 5'-diphosphate] | 9.21
18 | CCCCCC(=O)NCC(=O)O [Hexanoyl Glycine] | 1.27
19 | CCCCCCCC(=O)NCC(=O)O [Capryloyl glycine] | 0.943
20 | O=c1[nH]c(=O)c2ncn(C3OC(CO)C(O)C3O)c2[nH]1 (centres undefined) [Xanthosine] | 5.1
21 | Nc1ccn(C2OC(COP(=O)(O)O)C(O)C2O)c(=O)n1 (centres undefined) [Cytidine 5'-monophosphate] | 7.4
22 | Cc1cccc(Nc2ccccc2C(=O)O)c1C [Mefenamic acid] | 0.437
23 | NC(=O)c1ccc[n+](C2OC(COP(=O)(O)OP(=O)([O-])OCC3OC(n4cnc5c(N)ncnc54)C(O)C3O)C(O)C2O)c1 (centres undefined) [NAD] | 7.82
24 | COc1cc(C=CC(=O)O)cc(OC)c1OC [3,4,5-Trimethoxycinnamic acid] | 0.47

Row | Compound | LC retention time [min]
25 | NC(=O)NCCCC[C@H](N)C(=O)O [L-Homocitrulline] | 6.59
26 | C[N+](C)(C)CCOP(=O)([O-])OCC(O)CO (centres undefined) [sn-glycero-3-Phosphocholine] | 7.21
27 | O=c1cc(-c2ccccc2)oc2ccccc12 [Flavone] | 0.425
28 | CC(=O)NC(CO)C(=O)O (racemic) [N-Acetyl-DL-serine] | 5.82
29 | NCC(=O)CCC(=O)O [5-Aminolevulinic acid] | 5.89
30 | CCCCCCCCCCCCCC(=O)OCC(COP(=O)(O)OCCN)OC(=O)CCCCCCCCCCCCC (centres undefined) [1,2-Dimyristoyl-sn-glycero-3-phosphoethanolamine] | 2.44
31 | NCC(N)C(=O)O (racemic) [DL-2,3-Diaminopropionic acid] | 7.79
32 | CCC(C)C(=O)NCC(=O)O (centres undefined) [2-Methylbutyrylglycine] | 1.55
33 | CCN(CC)c1ccc2c(-c3ccccc3C(=O)[O-])c3ccc(=[N+](CC)CC)cc-3oc2c1 [Rhodamine B] | 0.776
34 | Nc1ncnc2c1ncn2C1OC(COP(=O)(O)O)C(O)C1O (centres undefined) [Adenosine-5'-monophosphate] | 6.76
35 | CC(C)C(N)CC(=O)O (racemic) [DL-beta-Leucine] | 5.29
36 | CC(=O)C1=CCC2C3CCC4=CC(=O)CCC4(C)C3CCC12C (centres undefined) [16-Dehydroprogesterone] | 0.423
37 | NCC(CC(=O)O)c1ccc(Cl)cc1 (centres undefined) [Baclofen] | 4.14
38 | CN1CC(=O)NC1=N [Creatinine] | 2.58
39 | O=C/C=C/c1ccccc1 [trans-Cinnamaldehyde] | 0.43
40 | CC(C)=CCCC(C)CC=O (single isomer, unassigned; (-)) [(-)-Citronellal] | 0.405
41 | O=C(O)c1ccccc1C(=O)O [Phthalic acid] | 0.963
42 | NCCCC(N)C(=O)O (centres undefined) [Ornithine] | 7.71
43 | Cn1c(=O)[nH]c(=O)c2[nH]cnc21 [3-Methylxanthine] | 1.15
44 | CC=CC=CC(=O)O [Sorbic acid] | 0.486
45 | NC(=O)C(N)Cc1c[nH]c2ccccc12 (centres undefined) [H-Trp-NH2] | 3.39
46 | O=C(CCc1ccc(O)cc1)c1c(O)cc(O)cc1OC1OC(CO)C(O)C(O)C1O (centres undefined) [Phloridzin] | 1.25
47 | Nc1ccc(C(=O)O)cc1 [p-Aminobenzoic acid] | 0.555
48 | CCC1=C(C)CN(C(=O)NCCc2ccc(S(=O)(=O)NC(=O)NC3CCC(C)CC3)cc2)C1=O (centres undefined) [Glimepiride] | 0.44

Row | Compound | LC retention time [min]
49 | N[C@H]1C(O)O[C@H](CO)[C@@H](O)[C@@H]1O (stereo partly drawn) [D-(+)-Glucosamine] | 6.72
50 | Cc1cn(C2CC(O)C(CO)O2)c(=O)[nH]c1=O (centres undefined) [Thymidine] | 1.04
51 | CN(C)CCOC(c1ccccc1)c1ccccc1 [Diphenhydramine] | 0.944
52 | CN1C(C(=O)Nc2ccccn2)=C(O)c2ccccc2S1(=O)=O [Piroxicam] | 0.44
53 | C=CC1=C(C)C(=Cc2[nH]c(Cc3[nH]c(C=C4NC(=O)C(C)=C4C=C)c(C)c3CCC(=O)O)c(CCC(=O)O)c2C)NC1=O [Bilirubin] | 0.518
54 | N[C@H]1C(O)O[C@H](COP(=O)(O)O)[C@@H](O)[C@@H]1O (stereo partly drawn) [D-Glucosamine 6-phosphate] | 8.21
55 | NC(=O)NCCC(=O)O [3-Ureidopropionic acid] | 4.57
56 | CCc1ccc(CCOc2ccc(CC3SC(=O)NC3=O)cc2)nc1 (centres undefined) [Pioglitazone] | 0.47
57 | CC(=O)Nc1nnc(S(N)(=O)=O)s1 [Acetazolamide] | 0.529
58 | NC(=O)NC(NC(N)=O)C(=O)O [Allantoic acid] | 6.54
59 | CC(=O)c1c(O)cc(C)oc1=O [DehydroacetIc acid] | 0.444
60 | Nc1nc2[nH]c(=O)cnc2c(=O)[nH]1 [Isoxanthopterin] | 4.02
61 | O=c1[nH]cnc2c1ncn2C1CC(O)C(CO)O1 (centres undefined) [Deoxyinosine] | 2.64
62 | CCCCNC(=O)NS(=O)(=O)c1ccc(C)cc1 [Tolbutamide] | 0.432
63 | COc1cc(C=CC(=O)CC(=O)C=Cc2ccc(O)c(OC)c2)ccc1O [Curcumin] | 0.431
64 | O=C(O)CNC(=O)c1cccnc1 [Nicotinuric acid] | 5.19
65 | O=c1ccn(C2CC(O)C(CO)O2)c(=O)[nH]1 (centres undefined) [2'-Deoxyuridine] | 1.23
66 | CC(=O)N[C@@H](CCCN=C(N)N)C(=O)O [N-Acetyl-L-arginine] | 6.21
67 | CC(=O)N[C@@H](CC(C)C)C(=O)O [N-Acetyl-L-leucine] | 1.18
68 | CN(C)CCCN1c2ccccc2Sc2ccc(Cl)cc21 [Chlorpromazine] | 1
69 | CCCCCCCCCCCCOC(=O)c1cc(O)c(O)c(O)c1 [Lauryl gallate] | 0.455
70 | CN(C)CCC=C1c2ccccc2CCc2ccccc21 [Amitriptyline] | 0.977
71 | N#CC(OC1OC(COC2OC(CO)C(O)C(O)C2O)C(O)C(O)C1O)c1ccccc1 (centres undefined) [Amygdalin] | 4.24
72 | OC(CCN1CCCCC1)(c1ccccc1)C1CCCCC1 (centres undefined) [Benzhexol] | 0.91

Row | Compound | LC retention time [min]
73 | NCCc1ccc(O)cc1 [Tyramine] | 3.19
74 | CC(=O)NCCCC(=O)O [4-(Acetylamino)butanoic acid] | 1.23
75 | NCCS(=O)(=O)O [Taurine] | 5.82
76 | CC(C)(CO)C(O)C(=O)NCCC(=O)O (single isomer, unassigned; (+)) [(+)-Pantothenic acid] | 2.17
77 | CC(C)(C)NCC(O)c1ccc(O)c(CO)c1 (centres undefined) [Salbutamol] | 3.16
78 | CSCC[C@H](NC(C)=O)C(=O)O [N-Acetyl-L-methionine] | 1.97
79 | N[C@@H](Cc1ccc(O)cc1)C(=O)O [L-Tyrosine] | 5.62
80 | O=C(O)CCCCCC(=O)O [Pimelic acid] | 0.909
81 | O=C(O)C(c1ccccc1)C1CCCCN1 (centres undefined) [Ritalinic Acid] | 3.41
82 | CC(=O)N1CCC[C@H]1C(=O)O [N-Acetyl-L-Proline] | 4.98
83 | CN(C)CCC=C1c2ccccc2COc2ccccc21 [Doxepin] | 1.04
84 | CC1OC(OC2C(CO)OC(OC3C(CO)OC(O)C(O)C3O)C(O)C2O)C(O)C(O)C1NC1C=C(CO)C(O)C(O)C1O (centres undefined) [Acarbose] | 8.07
85 | CC(=O)CCC(=O)O [Levulinic acid] | 0.421
86 | CC(=O)N[C@@H](C)C(=O)O [N-Acetyl-L-alanine] | 4.36
87 | COc1ccc2nc(S(=O)Cc3ncc(C)c(OC)c3C)[nH]c2c1 (centres undefined) [Omeprazole] | 0.484
88 | Cc1ncc(CO)c(CO)c1O [Pyridoxine] | 1.92
89 | NCC(O)CCC(N)C(=O)O (racemic) [DL-5-Hydroxylysine] | 7.93
90 | N[C@@H](CCSSCC[C@H](N)C(=O)O)C(=O)O [L-Homocystine] | 7.57
91 | CCC1C(=O)OCC1Cc1cncn1C (centres undefined) [Pilocarpine] | 1.22
92 | NC(=O)Cc1c[nH]c2ccccc12 [Indole-3-acetamide] | 0.475
93 | COc1ccc(OC)c(C(O)C(C)N)c1 (centres undefined) [Methoxamine] | 2.4
94 | N[C@@H](Cc1c[nH]c2ccc(O)cc12)C(=O)O [L-5-Hydroxytryptophan] | 5.36
